Earlier results as cited in patent US10660869B2, “Lactate powder and method for the preparation thereof” (Purac Biochem B.V., priority 2012, dated 2020).

Conditions: 1000 mg of sample dissolved in 240 ml water

Structure (SMILES): CC(O)C(=O)[O-].CC(O)C(=O)[O-].O.O.O.O.O.[Ca+2] (stereo not shown) [PURACAL® PP/FCC, calcium lactate pentahydrate]
- typical dissolution time: 25 s
